Tests used:
ExLac Rats = test: Phenol red thread (PRT) measurement of tear output in ExLac rats; assay type: in vivo, Sprague Dawley
Experimental: Procedures for Phenol Red Thread (PRT) Measurement of Tear Output:
Animal Species/Strain: Rats, Sprague Dawley (SD); Lacrimal gland surgically removed (ExLac).
Animal Number/Sex: 3-4 females/group
Test Article Formulation: All stock solutions for each dosing arm were prepared no more than 48 hours prior to the start of the study. The concentration of ENaC blockers in all test article solutions were confirmed by spectrophotometry.
Test Article Administration: Both the ipsilateral and contralateral eyes were dosed with 5 […]1 of test article solution.
Phenol Red Thread (PRT) Test: Tear production was measured using the ZoneQuick cotton thread with impregnated phenol red dye. The folded end of the thread was held in the lateral-ventral conjunctival cul-de-sac for 10 seconds. The length of tear wicking onto the thread was determined by measuring the length of the thread that changes color from yellow to red. Use of a stereomicroscope was assist in the accurate measurement (recorded in millimeters) of the wicking/color change.

[1] = tested on: Canine Bronchial Epithelial Cells; test: Durability of retention of airway surface liquid; assay type: cell-based
[2] = Solubility and accelerated stability in citrate buffer; assay type: physicochemical; settings: pH 4.2 citrate buffer with 2.8% NaCl
Experimental: • 1. 200 μL of 70% ACN (70% ACN, 30% H2O) was added into sample tubes which have threads in them. • 2. Tubes from Step 1 were vortexed for 30 seconds and sonicated for 1 minute to fully immerse the threads. • 3. The sample solutions were incubated for 4 hours at room temperature. • 4. Samples were vortexed again for 30 seconds. • 5. 75 μL, of the each sample solution (from step 4) was removed into 96-well UPLC plate with an additional 75 μL of mobile phase A (5 mM ammonium formate, 0.1% formic acid in H2O) added into each sample well. • 6. Analytical standards (10 mM, 1 mM, 100 µM, 10 µM, 1 µM, 100 nM, Buffer) were prepared identically to the thread solutions. • 7. Drug concentrations from all samples were analyzed by UPLC. Solubility and Stability Testing for Compound 15 (Formula I, aka I, aka P-1046, aka 1046): Procedure for Solubility and Stability Evaluation: • 1. Prepare 2.8% NaCl and 25 mM citrate buffer, pH of the solution 4.2. The osmolality of the solution is approximately 940 mOsM. • 2. Add appropriate amount of buffer solution to a test compound to make approximate concentration of 10 mg/mL. • 3. Vortex the solution for 15 seconds, sonicate for 30 seconds, again vortex for 60 seconds and visually observe the solution. • 4. Calculate final concentration of the solution by a spectrophotometer. • Remove a portion of solution and dilute it to 1:10 ratio. […]

CN(C)C(=O)[C@H](CCCCNC(=N)N)NC(=O)[C@H](CCc1ccc(CCCCNC(=N)NC(=O)c2nc(Cl)c(N)nc2N)cc1)N(C)C [Compound I, 3,5-diamino-6-chloro-N-(N-(4-(4-((S)-3-(dimethylamino)-4-((S)-1-(dimethylamino)-6-guanidino-1-oxohexan-2-ylamino)-4-oxobutyl)phenyl)butyl)carbamimidoyl)pyrazine-2-carboxamide]
Tear output (PRT) in ExLac rats, duration of effect (ExLac Rats; 2 hours post-dose, all dose groups except 0.1 mM): still observed
Tear output (PRT) in ExLac rats (ExLac Rats; all concentrations, 15 minutes post-dose, n=4): increases tear output in ExLac rats 15 minutes post-dose at or slightly below tear output values observed for normal rats
Tear output, baseline corrected data, significance vs vehicle (ExLac Rats; single 10 mM dose, baseline corrected, p <0.03): statistically significant at all post-dose time points
Tear volume relative to vehicle controls (ExLac Rats; single 10 mM dose, n=3): increased tear volume relative to vehicle controls
Tear output, raw data, significance vs vehicle (ExLac Rats; single 10 mM dose, raw PRT values): not significant beyond 60 minutes
Durability of Retention of Airway Surface Liquid, fluid retained ([1]; 8 hours after drug delivery, n=3): 94±5%
Durability of Retention of Airway Surface Liquid, fluid retained ([1]; 24 hours after drug delivery, n=2): 56±6%
Stability (HPLC), degradation ([2]; 10 days at 50° C.): No degradation
solubility ([2]; aqueous buffer, thermodynamic from solid, highest concentration tested): ≥ 8800 µg/mL
